In patent US20100234238A1, “METHOD FOR PROFILING KINASE INHIBITORS” (Janssen Pharmaceutica N V, priority 2006, published 2010):

Test system: tyrosine kinase activity in xenograft tumor lysates
Assay: PAMCHIP96 (140-peptide array) profiling of xenograft tumor lysates in absence or presence of MTKI
Type: biochemical
Conditions: 5 μM
Protocol: 100 mg of frozen tumor or tissue blocks, or sections, are lysed in 1 ml of M-PER buffer (PIERCE) containing phosphatase and protease inhibitors (HALT, PIERCE). The suspension is mixed using a ULTRA-TURRAX blender (IKA werke), and centrifuged twice for 10 minutes at 12 000×g. Supernatant lysates are filtered through a 0.2 micrometer filter (Anotop 0.2 μm anopore filter; Whatmann). Lysates are flash frozen in liquid nitrogen and stored at −80C.
Just prior to the PAMCHIP experiment, total protein content is quantitated in the lysates and lysates are diluted to 1 mg/ml in a total volume of 200 μl, with M-PER phosphatase and protease inhibitors (HALT, PIERCE). 10 μg of total lysate (corresponding to 10 μl) will be used per well on the PAMCHIP96.
To all 200 μl lysates 10 units of benzonase (Novagen) is added and lysates are further incubated for 30 min on ice and next centrifuged for 10 minutes at 12 000×g. The supernatant is then 1:1 diluted with compound or DMSO diluted to the appropriate concentration in water, and lysates are further incubated exactly 60 min on ice. Meanwhile, a PAMCHIP96 tyrosine peptide chip (PAMGENE) is blocked with 2% BSA (filtered through a 0.2 μm anopore filter; Whatmann) using the standard setting of a PAMSTATION96 (PAMGENE).
The composition of the kinase buffer is as follows: 1×ABL buffer (NEB), 0.5 mg/ml BSA (from 10 mg/ml NEB stock), 100 μM ATP (dissolved and diluted in 1×ABL buffer), 5 μg/ml PY20-FITC (ExAlpha Biologicals, azide-free preparation). A twofold concentrated kinase buffer is prepared chilled on ice, DMSO or compound is added as appropriate, and the solution is added 1:1 to the (compound treated) ice cold lysates, and immediately applied to a tyrosine peptide PAMCHIP96. The assay is run on a PAMSTATION96 according to standard procedures: after loading of the plate, solution is pumped once onto the wells, a first exposure is read (150 mSec) and then a kinetic reading program (reading every 5 min for 150 mSec) is run for 60 min. Lysates are run in 6 technical replicates for each condition; replicates are always applied horizontally next to each other to avoid vertical strip effects of the chip.
The data (spot images) are further quantified and linked to the peptide identities using EVOLVE PAMGRID software (PAMGENE). The quantified data are then fit to a curve using CurveFitHT software (PAMGENE) using the Vinip2 curve fitting algorithm, applied on the first 30 min of the assay; the initial velocity is derived at the first kinetic time point read. All subsequent data analyses were done on initial velocities (Vini) using the software packages Omniviz and R (Ihaka, R. and Gentlemen, R. (1996) R: a language for data analysis and graphics. J. Comput. Graph. Stat., 5, 299-314).
After replacing the Vini's lower than 0.1 by 0.1, all Vini's were log 2-transformed to approach normality. […] This test was done for each peptide separately using a mixed model (Littell, R. C., Milliken, G. A., Stroup, W. W., Wolfinger, R. D. 1996. SAS system for mixed models. Cary, N. C.: SAS Institute Inc.) allowing the incorporation of both technical variation (i.e., the variation across replicates) and biological variation (i.e., the variation among the various responding and non-responding cell lines or tumors). Variation between cell lines or tumors in Vini and in treatment effect on Vini was modeled respectively by random intercepts and random compound effects per cell line or tumor, nested in response status. The difference in compound-induced reduction in Vini between responding and non-responding cell lines or tumors was tested through the interaction between compound treatment and response status, both modeled as fixed effects.

Question: How did the “ratio of initial velocity of peptide phosphorylation” value (“ratio” for short) (H322 xenograft tumor lysate, CDK7_157_169_S164) turn out when COc1cc2ncnc3c2cc1OCCCCCN(C)Cc1ccc(Br)cc1N3 [MTKI, 4,6-ethanediylidenepyrimido[4,5-b][6,1,12]benzoxadiazacyclopentadecine, 17-bromo-8,9,10,11,12,13,14,19-octahydro-20-methoxy-13-methyl-] was run?
Answer: Its value is 0.77.

Question: What about the “ratio” value (H322 xenograft tumor lysate, EPHB1_921_933_Y928) of the same compound?
Answer: Its value is 0.75.

Question: What about the “ratio” value (H322 xenograft tumor lysate, FAK1_569_581_Y576/Y577) of the same compound?
Answer: The value was 0.82.

Question: And the “ratio” value (H322 xenograft tumor lysate, GSK3B_209_221_Y216)?
Answer: Its value is 0.77.

Question: And the “ratio” value (H322 xenograft tumor lysate, K2C6E_53_65_S59)?
Answer: The value was 0.80.

Question: What about the “ratio” value (H322 xenograft tumor lysate, MBP_259_271_Y261/Y268/S266) of the same compound?
Answer: The value was 0.65.

Question: And the “ratio” value (H322 xenograft tumor lysate, MK10_216_228_T221/Y223)?
Answer: Its value is 0.68.

Question: What about the “ratio” value (H322 xenograft tumor lysate, NCF1_313_325_S315/S320) of the same compound?
Answer: Its value is 0.78.

Question: What about the “ratio” value (H322 xenograft tumor lysate, NTRK2_699_711_Y702/Y706/Y707) of the same compound?
Answer: The value was 0.76.

Question: What about the “ratio” value (H322 xenograft tumor lysate, P2AB_297_309_T304/Y307) of the same compound?
Answer: The value was 0.77.

Question: And the “ratio” value (H322 xenograft tumor lysate, PGFRB_572_584_Y579/Y581)?
Answer: Its value is 0.67.

Question: And the “ratio” value (H322 xenograft tumor lysate, RAF1_331_343_S337/S338/Y339/Y340)?
Answer: Its value is 0.79.

Question: And the “ratio” value (H322 xenograft tumor lysate, RB_804_816_S807/S811)?
Answer: Its value is 0.75.

Question: What about the “ratio” value (H322 xenograft tumor lysate, SYN1_2_14_S9) of the same compound?
Answer: Its value is 0.78.

Question: What about the “ratio” value (H322 xenograft tumor lysate, TYRO3_679_691_Y686) of the same compound?
Answer: Its value is 0.80.

Question: What about the “ratio” value (H322 xenograft tumor lysate, VEGFR2_944_956_Y951) of the same compound?
Answer: The value was 0.75.

Question: And the “ratio” value (H322 xenograft tumor lysate, VINC_815_827_Y821)?
Answer: Its value is 0.76.

Question: What about the “ratio” value (H3255 xenograft tumor lysate, CDK7_157_169_S164) of the same compound?
Answer: The value was 0.45.

Question: And the “ratio” value (H3255 xenograft tumor lysate, EPHB1_921_933_Y928)?
Answer: Its value is 0.44.

Question: And the “ratio” value (H3255 xenograft tumor lysate, FAK1_569_581_Y576/Y577)?
Answer: The value was 0.48.

Question: And the “ratio” value (H3255 xenograft tumor lysate, GSK3B_209_221_Y216)?
Answer: The value was 0.57.

Question: And the “ratio” value (H3255 xenograft tumor lysate, K2C6E_53_65_S59)?
Answer: Its value is 0.56.

Question: What about the “ratio” value (H3255 xenograft tumor lysate, MBP_259_271_Y261/Y268/S266) of the same compound?
Answer: Its value is 0.47.

Question: What about the “ratio” value (H3255 xenograft tumor lysate, MK10_216_228_T221/Y223) of the same compound?
Answer: Its value is 0.31.

Question: What about the “ratio” value (H3255 xenograft tumor lysate, NCF1_313_325_S315/S320) of the same compound?
Answer: The value was 0.73.

Question: And the “ratio” value (H3255 xenograft tumor lysate, NTRK2_699_711_Y702/Y706/Y707)?
Answer: Its value is 0.48.

Question: And the “ratio” value (H3255 xenograft tumor lysate, P2AB_297_309_T304/Y307)?
Answer: The value was 0.66.

Question: What about the “ratio” value (H3255 xenograft tumor lysate, PGFRB_572_584_Y579/Y581) of the same compound?
Answer: The value was 0.66.

Question: What about the “ratio” value (H3255 xenograft tumor lysate, RAF1_331_343_S337/S338/Y339/Y340) of the same compound?
Answer: The value was 0.53.

Question: And the “ratio” value (H3255 xenograft tumor lysate, RB_804_816_S807/S811)?
Answer: The value was 0.52.

Question: What about the “ratio” value (H3255 xenograft tumor lysate, SYN1_2_14_S9) of the same compound?
Answer: The value was 0.50.

Question: And the “ratio” value (H3255 xenograft tumor lysate, TYRO3_679_691_Y686)?
Answer: The value was 0.51.

Question: What about the “ratio” value (H3255 xenograft tumor lysate, VEGFR2_944_956_Y951) of the same compound?
Answer: Its value is 0.52.

Question: What about the “ratio” value (H3255 xenograft tumor lysate, VINC_815_827_Y821) of the same compound?
Answer: Its value is 0.40.

Question: What about the “ratio” value (SUM149 xenograft tumor lysate, EPHB1_921_933_Y928) of the same compound?
Answer: Its value is 0.85.

Question: And the “ratio” value (SUM149 xenograft tumor lysate, FAK1_569_581_Y576/Y577)?
Answer: Its value is 0.94.

Question: And the “ratio” value (SUM149 xenograft tumor lysate, GSK3B_209_221_Y216)?
Answer: Its value is 0.91.

Question: And the “ratio” value (SUM149 xenograft tumor lysate, K2C6E_53_65_S59)?
Answer: Its value is 0.86.

Question: What about the “ratio” value (SUM149 xenograft tumor lysate, MBP_259_271_Y261/Y268/S266) of the same compound?
Answer: The value was 1.04.

Question: What about the “ratio” value (SUM149 xenograft tumor lysate, MK10_216_228_T221/Y223) of the same compound?
Answer: The value was 0.75.

Question: What about the “ratio” value (SUM149 xenograft tumor lysate, NCF1_313_325_S315/S320) of the same compound?
Answer: Its value is 0.94.

Question: What about the “ratio” value (SUM149 xenograft tumor lysate, NTRK2_699_711_Y702/Y706/Y707) of the same compound?
Answer: Its value is 0.85.

Question: What about the “ratio” value (SUM149 xenograft tumor lysate, P2AB_297_309_T304/Y307) of the same compound?
Answer: Its value is 0.87.

Question: And the “ratio” value (SUM149 xenograft tumor lysate, PGFRB_572_584_Y579/Y581)?
Answer: The value was 0.69.

Question: What about the “ratio” value (SUM149 xenograft tumor lysate, RAF1_331_343_S337/S338/Y339/Y340) of the same compound?
Answer: The value was 0.99.

Question: And the “ratio” value (SUM149 xenograft tumor lysate, RB_804_816_S807/S811)?
Answer: Its value is 0.83.

Question: What about the “ratio” value (SUM149 xenograft tumor lysate, SYN1_2_14_S9) of the same compound?
Answer: Its value is 1.01.

Question: And the “ratio” value (SUM149 xenograft tumor lysate, TYRO3_679_691_Y686)?
Answer: The value was 1.03.

Question: And the “ratio” value (SUM149 xenograft tumor lysate, VEGFR2_944_956_Y951)?
Answer: The value was 0.86.

Question: What about the “ratio” value (SUM149 xenograft tumor lysate, VINC_815_827_Y821) of the same compound?
Answer: The value was 0.75.
